In patent publication US20130150346A1, “Use of FAAH Inhibitors for Treating Parkinson's Disease and Restless Legs Syndrome” (Ironwood Pharmaceutical, Inc., priority 2010, published 2013):

Test system: MPTP-lesioned macaques
Experiment: Motor activity (total activity, high activity time and counts) in MPTP-lesioned macaques treated with URB597 and L-DOPA
Type: in vivo, cynomolgus monkeys (Macaca fascicularis)
Source text: In addition, a quantitative assessment of marmoset activity was made using computer-operated passive infra-red sensors, essentially as described previously (Maccarrone et al., 2003, J. Neurochem. 85: 1018-1025; Visanji et al., 2009 J Pharm Exp Ther 328: 276-283). A single sensor containing a hemispherical lens (Guardall, Mississauga, ON, Canada) was mounted 1.5 m above the top of each the observation cage. The sensor was positioned so that motion was detected throughout the entirety of the cage below. The signal was fed via an RS-232 input to a computer. […] Activity counts were logged in 1-min epochs for the entire 6 h duration of the experiment and cumulated over the peak dose period of 2-4 h.
Assessment of marmoset activity was further assessed over time by quantifying the average activity of counts per minute of the same animals obtained prior to administration of MPTP (i.e., in the normal state). Activity over the same period of 2-4 h was calculated and used to identify minutes of high activity (a minute when activity was above the average per minute of the animal prior to MPTP). High activity counts (the total counts obtained in high activity minutes) were cumulated. High activity time (the number of high activity minutes) were also calculated.
Six cynomolgus monkeys (Macaca fascicularis) were used in each experiment. Animals were group housed with up to 3 animals per cage. The cage sizes exceeded UK, NIH, EU and CCAC minimum size recommendations, 2.4 m×3.0 m×1.0 m. The housing room was subject to a 12 hour light-dark cycle (lights on 7 a.m.), temperature 20-25° C. in a room containing only animals of the same sex. Fresh fruit, primate pellets and water was available ad libitum unless specifically described in other examples below.
This experiment examined the behavioral responses to five doses of URB597 (0.01, 0.03, 0.1, 0.3 or 1 mg/kg, i.v.) or vehicle in combination with L-DOPA in six parkinsonian macaques previously lesioned with MPTP.
The protocols for housing and acclimatization for the six parkinsonian MPTP-lesioned macaques were as those detailed in Example 6.
After acclimatization, the macaques in the MPTP cohort were rendered parkinsonian by once daily subcutaneous injection of 0.2 mg/kg MPTP, administered for 8-12 days, until the first appearance of parkinsonism symptoms. After this time, a parkinsonian syndrome evolved to a moderate to marked level, over approximately 30 days, and stabilized. Additional administrations of MPTP were given to some animals to titrate to similar degrees of parkinsonism in individuals across the group.
Sixty days after commencing MPTP administration, L-DOPA (20 mg/kg) was administered orally twice daily for six months. L-DOPA was administered as Madopar™ (L-DOPA in combination with benserazide). This treatment led to the development of motor fluctuations, including dyskinesia and wearing-off.
Dose-finding studies were performed to define a dose of L-DOPA for each individual macaque that provided the best anti-parkinsonian effect achievable and elicited hyperactivity that was stable and reproducible for that animal, on successive L-DOPA administrations.
L-DOPA was administered p.o. at a dose volume of 1 ml/kg, as Madopar™ (L-DOPA in combination with benserazide in the ratio 4:1). The vehicle for Madopar™ was water. On days when animals were not subject to behavioral observations they received maintenance oral L-DOPA, Madopar™ (30 mg/kg, p.o.) at approximately 9:00 a.m.
URB597 was obtained from Cayman Chemical (product #10046) and was formulated in 0.9% sterile saline containing 1% DMSO (v/v) (Sigma-Aldrich product #D2650) and 2% (v/v) Tween-80 (Sigma-Aldrich product #P4780) for dosing at a volume of 1 ml/kg.
For each URB597 concentration tested, requisite amounts of URB597 were weighed into sterile 50 ml sterile polypropylene tubes (Falcon™) (e.g., for the 1 mg/kg doses, approximately 35 mg was weighed). […]

## NC(=O)c1cccc(-c2cccc(OC(=O)NC3CCCCC3)c2)c1 [URB597]
0.3 and 1.0 mg/ml (so in the source) URB597 i.v. and L-DOPA p.o.
  hyperactive behavior compared with treatment with L-DOPA alone: significant reduction
URB597 0.1 mg/kg i.v. + L-DOPA p.o.
  effect on L-DOPA-induced hyperactivity: ineffective
URB597 0.3 mg and 1.0 mg/kg i.v. + L-DOPA p.o., at 3 hrs, RM-ANOVA
  total activity versus L-DOPA treatment only: significant effect
URB597 0.3 mg/kg i.v. + L-DOPA p.o.
  effect on L-DOPA-induced hyperactivity: maximally effective
URB597 0.01-1 mg/kg i.v. + L-DOPA p.o.
  levels of L-DOPA-induced hyperactivity, dose dependence: dose-dependently reduced
URB597 0.3 and 1.0 mg/kg i.v. + L-DOPA p.o., at 3 hrs post-administration of L-DOPA
  hyperactivity over the L-DOPA treatments alone: lowered hyperactivity
